From patent US20070202116A1, “Treatment of micro-organism infection” (priority 2001, published 2007)
Read-outs that look alike come from different tables or passages of the source.

Columns and labels:
[1] = system: MRSA strains (VISA and parent EMRSA-15); assay: MIC of vancomycin in the presence of Aurograb (Table 3); assay type: cell-based, S. aureus; details: Staphylococcus aureus
Procedure: (§1) Strains of MRSA were grown overnight in nutrient broth and diluted to give an inoculum of 1×10^3 cells per mL. […] Cultures were incubated for a further 2 days. The minimum growth-inhibitory concentration (MIC) is defined as the […] concentration of antibiotic at which no bacterial growth occurs and is determined by spectrophotometric evaluation of the lack of turbidity (growth) in culture. MICs were determined in the presence of exogenous Aurograb or in the presence of Aurograb formulation buffer (negative control).

[2] = system: EMRSA strains; assay: MIC of vancomycin or flucloxacillin with and without Aurograb (Table 3a); assay type: cell-based, S. aureus; details: Staphylococcus aureus
Procedure: as §1
The experiments were also performed using flucloxacillin instead of vancomycin to investigate how the efficacy of penicillin-type […] was affected by Aurograb.

CN[C@H](CC(C)C)C(=O)N[C@H]1C(=O)N[C@@H](CC(N)=O)C(=O)N[C@H]2C(=O)N[C@H]3C(=O)N[C@H](C(=O)N[C@H](C(=O)O)c4cc(O)cc(O)c4-c4cc3ccc4O)[C@H](O)c3ccc(c(Cl)c3)Oc3cc2cc(c3O[C@@H]2O[C@H](CO)[C@@H](O)[C@H](O)[C@H]2O[C@H]2C[C@](C)(N)[C@H](O)[C@H](C)O2)Oc2ccc(cc2Cl)[C@H]1O [Vancomycin, vancomycin]
MIC ([1]; read-out: MIC to Vancomycin in the presence of Aurograb, Parent EMRSA-15, Aurograb 0 μg/ml): 1 µg/mL | MIC ([1]; read-out: MIC to Vancomycin in the presence of Aurograb, Parent EMRSA-15, Aurograb 80 μg/ml): 0.25 µg/mL | MIC ([1]; read-out: MIC to Vancomycin in the presence of Aurograb, Parent EMRSA-15, Aurograb 125 μg/ml): < 0.125 µg/mL | MIC ([1]; read-out: MIC to Vancomycin in the presence of Aurograb, VISA EMRSA-1, Aurograb 0 μg/ml): 8 µg/mL | MIC ([1]; read-out: MIC to Vancomycin in the presence of Aurograb, VISA EMRSA-1, Aurograb 60 μg/ml): 4 µg/mL | MIC ([1]; read-out: MIC to Vancomycin in the presence of Aurograb, VISA EMRSA-1, Aurograb 80 μg/ml): 2 µg/mL | MIC ([1]; read-out: MIC to Vancomycin in the presence of Aurograb, VISA EMRSA-1, Aurograb 125 μg/ml): < 0.125 µg/mL | MIC ([1]; read-out: MIC to Vancomycin in the presence of Aurograb, VISA EMRSA-2, Aurograb 0 μg/ml): 4 µg/mL | MIC ([1]; read-out: MIC to Vancomycin in the presence of Aurograb, VISA EMRSA-2, Aurograb 60 μg/ml): 0.5 µg/mL | MIC ([1]; read-out: MIC to Vancomycin in the presence of Aurograb, VISA EMRSA-2, Aurograb 80 μg/ml): 1 µg/mL | MIC ([1]; read-out: MIC to Vancomycin in the presence of Aurograb, VISA EMRSA-2, Aurograb 125 μg/ml): < 0.125 µg/mL | MIC ([1]; read-out: MIC to Vancomycin in the presence of Aurograb, VISA EMRSA-8, Aurograb 0 μg/ml): 8 µg/mL | MIC ([1]; read-out: MIC to Vancomycin in the presence of Aurograb, VISA EMRSA-8, Aurograb 60 μg/ml): 2 µg/mL | MIC ([1]; read-out: MIC to Vancomycin in the presence of Aurograb, VISA EMRSA-8, Aurograb 80 μg/ml): 1 µg/mL | MIC ([1]; read-out: MIC to Vancomycin in the presence of Aurograb, VISA EMRSA-8, Aurograb 125 μg/ml): < 0.125 µg/mL | MIC ([1]; read-out: MIC to Vancomycin in the presence of Aurograb, VISA EMRSA-11, Aurograb 0 μg/ml): 4 µg/mL | MIC ([1]; read-out: MIC to Vancomycin in the presence of Aurograb, VISA EMRSA-11, Aurograb 60 μg/ml): 4 µg/mL | MIC ([1]; read-out: MIC to Vancomycin in the presence of Aurograb, VISA EMRSA-11, Aurograb 80 μg/ml): 1 µg/mL | MIC ([1]; read-out: MIC to Vancomycin in the presence of Aurograb, VISA EMRSA-11, Aurograb 125 μg/ml): < 0.125 µg/mL | MIC ([1]; read-out: MIC to Vancomycin in the presence of Aurograb, VISA EMRSA-12, Aurograb 0 μg/ml): 8 µg/mL | MIC ([1]; read-out: MIC to Vancomycin in the presence of Aurograb, VISA EMRSA-12, Aurograb 60 μg/ml): 4 µg/mL | MIC ([1]; read-out: MIC to Vancomycin in the presence of Aurograb, VISA EMRSA-12, Aurograb 80 μg/ml): 2 µg/mL | MIC ([1]; read-out: MIC to Vancomycin in the presence of Aurograb, VISA EMRSA-12, Aurograb 125 μg/ml): < 0.125 µg/mL | MIC ([1]; read-out: MIC to Vancomycin in the presence of Aurograb, VISA EMRSA-15, Aurograb 0 μg/ml): 8 µg/mL | MIC ([1]; read-out: MIC to Vancomycin in the presence of Aurograb, VISA EMRSA-15, Aurograb 60 μg/ml): 4 µg/mL | MIC ([1]; read-out: MIC to Vancomycin in the presence of Aurograb, VISA EMRSA-15, Aurograb 80 μg/ml): 2 µg/mL | MIC ([1]; read-out: MIC to Vancomycin in the presence of Aurograb, VISA EMRSA-15, Aurograb 125 μg/ml): < 0.125 µg/mL | MIC ([2]; read-out: MIC to vancomycin + 100 μg/ml Aurograb, EMRSA strain 1, + 100 μg/ml Aurograb): 0.03 µg/mL | MIC ([2]; read-out: MIC to vancomycin + 100 μg/ml Aurograb, EMRSA strain 2, + 100 μg/ml Aurograb): 0.03 µg/mL | MIC ([2]; read-out: MIC to vancomycin + 100 μg/ml Aurograb, EMRSA strain 3, + 100 μg/ml Aurograb): 0.03 µg/mL | MIC ([2]; read-out: MIC to vancomycin + 100 μg/ml Aurograb, EMRSA strain 4, + 100 μg/ml Aurograb): 0.03 µg/mL | MIC ([2]; read-out: MIC to vancomycin + 100 μg/ml Aurograb, EMRSA strain 5, + 100 μg/ml Aurograb): 0.03 µg/mL | MIC ([2]; read-out: MIC to vancomycin + 100 μg/ml Aurograb, EMRSA strain 6, + 100 μg/ml Aurograb): 0.0125 µg/mL | MIC ([2]; read-out: MIC to vancomycin + 100 μg/ml Aurograb, EMRSA strain 7, + 100 μg/ml Aurograb): 0.03 µg/mL | MIC ([2]; read-out: MIC to vancomycin + 100 μg/ml Aurograb, EMRSA strain 8, + 100 μg/ml Aurograb): 0.0125 µg/mL | MIC ([2]; read-out: MIC to vancomycin + 100 μg/ml Aurograb, EMRSA strain 9, + 100 μg/ml Aurograb): 0.0125 µg/mL | MIC ([2]; read-out: MIC to vancomycin + 100 μg/ml Aurograb, EMRSA strain 10, + 100 μg/ml Aurograb): 0.03 µg/mL | MIC ([2]; read-out: MIC to vancomycin + 100 μg/ml Aurograb, EMRSA strain 11, + 100 μg/ml Aurograb): 0.03 µg/mL | MIC ([2]; read-out: MIC to vancomycin + 100 μg/ml Aurograb, EMRSA strain 12, + 100 μg/ml Aurograb): 0.03 µg/mL | MIC ([2]; read-out: MIC to vancomycin + 100 μg/ml Aurograb, EMRSA strain 13, + 100 μg/ml Aurograb): 0.03 µg/mL | MIC ([2]; read-out: MIC to vancomycin + 100 μg/ml Aurograb, EMRSA strain 14, + 100 μg/ml Aurograb): 0.03 µg/mL | MIC ([2]; read-out: MIC to vancomycin + 100 μg/ml Aurograb, EMRSA strain 15, + 100 μg/ml Aurograb): 0.03 µg/mL | MIC ([2]; read-out: MIC to vancomycin + 100 μg/ml Aurograb, EMRSA strain 16, + 100 μg/ml Aurograb): 0.03 µg/mL | MIC ([2]; read-out: MIC to vancomycin, EMRSA strain 1): 0.5 µg/mL | MIC ([2]; read-out: MIC to vancomycin, EMRSA strain 2): 0.5 µg/mL | MIC ([2]; read-out: MIC to vancomycin, EMRSA strain 3): 0.5 µg/mL | MIC ([2]; read-out: MIC to vancomycin, EMRSA strain 4): 0.5 µg/mL | MIC ([2]; read-out: MIC to vancomycin, EMRSA strain 5): 0.5 µg/mL | MIC ([2]; read-out: MIC to vancomycin, EMRSA strain 6): 0.5 µg/mL | MIC ([2]; read-out: MIC to vancomycin, EMRSA strain 7): 0.5 µg/mL | MIC ([2]; read-out: MIC to vancomycin, EMRSA strain 8): 0.5 µg/mL | MIC ([2]; read-out: MIC to vancomycin, EMRSA strain 9): 0.5 µg/mL | MIC ([2]; read-out: MIC to vancomycin, EMRSA strain 10): 0.5 µg/mL | MIC ([2]; read-out: MIC to vancomycin, EMRSA strain 11): 0.5 µg/mL | MIC ([2]; read-out: MIC to vancomycin, EMRSA strain 12): 0.5 µg/mL | MIC ([2]; read-out: MIC to vancomycin, EMRSA strain 13): 0.5 µg/mL | MIC ([2]; read-out: MIC to vancomycin, EMRSA strain 14): 0.25 µg/mL | MIC ([2]; read-out: MIC to vancomycin, EMRSA strain 15): 0.5 µg/mL | MIC ([2]; read-out: MIC to vancomycin, EMRSA strain 16): 0.5 µg/mL
